Measurements: publication PMC4811302, “Human β-defensin 3 contains an oncolytic motif that binds PI(4,5)P2 to mediate tumour cell permeabilisation” (Oncotarget, 2015)
One block for each substance: values may come before it. Where no end group is shown, it is not given here.

Tests used:
[1] = Protein-lipid overlay assay, PIP strip; assay type: binding; details: 1 μg/mL protein, immunodetection, densitometry
Protocol: Protein-lipid overlay assays using Membrane strip™ or PIP strip™ (Echelon Biosciences, Salt Lake City, UT) were performed using 1 μg/mL proteins as described previously. Lipid binding was immunodetected using a combination of rabbit anti-HBD-3 IgG (50 μg/mL) and horseradish peroxidase-conjugated donkey-anti-rabbit Ig (10 μg/mL) antibodies. Chemiluminescence signal intensity was quantitated by densitometry analysis using ImageJ (National Institutes of Health, Bethesda, MD; http://imagej.nih.gov/ij/).

[2] = ATP-encapsulated liposome leakage assay, PC:PI(4,5)P2; details: 15 μM defensin
Protocol: Liposomes were generated as described previously using natural PI(4,5)P2 (porcine brain, in chloroform:methanol:water at 20:9:1 molar ratio) and PC (chicken egg, in chloroform) purchased from Avanti Polar Lipids. PC only or PC:PI(4,5)P2 (95:5 molar ratio) solutions were dried under a stream of nitrogen gas followed by overnight vacuum-drying. The lipid films were rehydrated to a final concentration of 5 mg/mL in 20 mM HEPES (pH 7.2) containing 5 mg/mL adenosine-5-triphosphate disodium salt (ATP; Sigma-Aldrich) at 37°C for 1 h. After three subsequent cycles of freezing (liquid nitrogen) and thawing (25°C), multilamellar liposomes were extruded 15–20 times through a mini-extruder (Avanti Polar Lipids). Free ATP was removed by three centrifugal washes with 20 mM HEPES at 16,500 g prior to the ATP release assay. Liposomes treated with 1% Triton X-100 were included as positive control and assigned as total lysis, whereas HEPES only control served as background reading. The level of ATP release at a particular time point was determined by quotient of the corrected reading (after subtracting background) of the sample at that time point and corrected reading of total lysis, as per the following equation: % Lysist=Samplet−HEPESt/Triton X−HEPES×100

U937 and HeLa cells = assay: Cell viability assay, mutants compared to wild-type; assay type: cell-based, human; details: cell viability assays, 48 h
Protocol: (§1) Different concentrations of HBD-3 were added to cells seeded in 96-well plates in appropriate complete medium. Initial plating cell density was pre-optimised to avoid confluence at endpoint. After 48 h, cell viability was determined using 3-(4,5-dimethylthiazol-2-yl)-2,5-diphenyltetrazolium bromide (MTT) (Sigma-Aldrich, MO) for adherent cells (HeLa, PC3, HUVEC, AHDF, CASMC) or 3-(4,5-dimethylthiazol-2-yl)-5-(3-carboxymethoxyphenyl)-2-(4-sulfophenyl)-2H-tetrazolium (MTS) (Promega, Madison, WI) coupled with phenzine methosulfate (PMS) (Promega) for suspension cells (U937, HL-60, Jurkat) prior to absorbance measurement at 570 nm and […], respectively. Absorbance readings of untreated control wells was designated as 100% cell viability.

U937 cells [3] = assay: Tetrazolium-coupled cell viability assay, HBD-3 and mutants, U937; assay type: cell-based, human; details: 48 h
Protocol: as §1

HeLa cells = assay: Tetrazolium-coupled cell viability assay, HBD-3 and mutants, HeLa; assay type: cell-based, human; details: 48 h
Protocol: as §1

[4] = tested on: plasma membrane PI(4,5)P2 of U937 cells; assay: Anti-PI(4,5)P2 antibody blocking assay; assay type: cell-based, human; details: 15 μM defensins 30 min or 10 mM neomycin 3 h; cells fixed, saponin-lysed, FITC-conjugated anti-PI(4,5)P2 IgM, flow cytometry
Protocol: U937 cells at 1×10^6 cells/mL were treated with 10 mM neomycin for 3 h and/or 15 μM defensins for 30 min in serum-free RPMI 1640 medium containing 0.1% BSA, followed by 20 min fixation with 2% (v/w) paraformaldehyde (Sigma-Aldrich), 10 min lysis with 0.5% (w/v) saponin (Sigma-Aldrich), and then 30 min blocking with 3% (w/v) BSA. Three 5-min centrifugal washes with PBS at 500 g were also included between steps. FITC-conjugated mouse anti-PI(4,5)P2 IgM (Echelon Biosciences) or IgM control (GeneTex, Irvine, CA) was subsequently used at 10 μg/mL for 30 min prior to flow cytometry analysis.

U937 cells [5] = assay: Lipid inhibition of HBD-3 mediated PI uptake; assay type: cell-based, human; details: 15 μM HBD-3 pre-incubated with 50 μM synthetic lipid, flow cytometry, three independent experiments
Protocol: (§2) Cells suspended at 1×10^6 cells/mL in serum-free medium containing 0.1% (w/v) bovine serum albumin (BSA) (Sigma-Aldrich) were treated with HBD-3 at 37°C for 30 min. Nucleic acid stain propidium iodide (PI) was then added to a final concentration of 1 μg/mL and cells subjected to flow cytometry analysis using BD FACSCanto II Flow Cytometer and BD FACSDiva Software v6.1.1 (BD Biosciences, San Jose, CA). For each flow cytometry reading, 10,000 cells, gated appropriately based on forward scattering and side scattering, were recorded. The resultant data were processed using FlowJo software (Tree Star, San Carlos, CA) to determine PI-positivity, which reflects the level of membrane permeabilisation. For lipid inhibition assays, 15 μM HBD-3 was pre-incubated with 50 μM synthetic lipids, including L-α-phosphatidic acid (PA), L-α-phosphatidylcholine (PC), L-α-phosphatidylethanolamine (PE), L-α-phosphatidylserine (PS), L-α-phosphatidylinositol-4-phosphate (PI(4)P), L-α-phosphatidylinositol-3,5-bisphosphate (PI(3,5)P2), L-α-phosphatidylinositol-4,5-bisphosphate (PI(4,5)P2) and L-α-phosphatidylinositol-3,4,5-trisphosphate (PI(3,4,5)P)3. All lipids were sourced from Avanti Polar Lipids, Alabaster, AL. For neomycin inhibition experiments, U937 cells at 1×10^6 cells/mL were pre-treated with 10 mM neomycin (Sigma-Aldrich), followed by three centrifugal washes with phosphate buffered saline (PBS) at 500 g for 5 min.

U937 cells [6] = assay: Neomycin inhibition of membrane permeabilisation (PI uptake); assay type: cell-based, human; details: cells pre-treated with 10 mM neomycin, PI uptake by flow cytometry; effect overcome at higher HBD-3 concentrations
Protocol: as §2, with “For neomycin inhibition experiments, U937 cells at 1×10^6 cells/mL were pre-treated with 10 mM neomycin (Sigma-Aldrich), followed by three centrifugal washes with phosphate buffered saline (PBS) at 500 g for 5 min.” left out

tumour cells = details: in vitro; ref [11]; cited from earlier work
Source text: The underlying mechanism was described to involve the entry of NaD1 into the cell followed by binding to PI(4,5)P2, leading to membrane permeabilisation, membrane blebbing and eventually to cell lysis.

- binding to PA on PIP strip compared to wild-type HBD-3 [1]: substantially retained
- binding to phosphoinositides/lipids on PIP strip [1]: much lower levels
Substance: HBD-3(K32A): alanine mutant of HBD-3 at K32, recombinantly expressed in P. pastoris (GIINTLQKYYCRVRGGRCAVLSCLPKEEQIGACSTRGRKCCRRKK; ends and bridges not checked; cysteine pairing not given here; UniProt P81534 23-67, looked up, variant K32A)
- ability to induce ATP release from ATP-encapsulated liposomes compared to wild-type HBD-3 [2]: impaired
- tumour cell cytotoxicity compared to wild-type HBD-3 (U937 and HeLa cells): reduced tumour cell cytotoxicity

- fold higher IC50 compared to wild-type HBD-3 (U937 cells [3]): three-fold
- fold higher IC50 compared to wild-type HBD-3 (HeLa cells): two-fold
- binding to PA on PIP strip compared to wild-type HBD-3 [1]: maintaining binding to PA
- binding to phosphoinositides/lipids on PIP strip [1]: pronounced loss of PIP binding
Substance: HBD-3(K39A): alanine mutant of HBD-3 at K39, recombinantly expressed in P. pastoris (GIINTLQKYYCRVRGGRCAVLSCLPKEEQIGKCSTRGRACCRRKK; UniProt P81534 23-67, looked up, variant K39A)
- blocking of anti-PI(4,5)P2 antibody binding (overall fluorescence intensity vs untreated control) [4]: essentially the same as that of the untreated control
- ability to induce ATP release from ATP-encapsulated liposomes compared to wild-type HBD-3 [2]: impaired
- tumour cell cytotoxicity compared to wild-type HBD-3 (U937 and HeLa cells): reduced tumour cell cytotoxicity

Substance: L-α-phosphatidic acid [PA]
- reduced PI-positivity (inhibition of HBD-3 mediated PI uptake by lipid) (U937 cells [5]): enhanced permeabilisation

Substance: L-α-phosphatidylcholine [PC]
- reduced PI-positivity (inhibition of HBD-3 mediated PI uptake by lipid) (U937 cells [5]): did not show any significant inhibition

Substance: L-α-phosphatidylethanolamine [PE]
- reduced PI-positivity (inhibition of HBD-3 mediated PI uptake by lipid) (U937 cells [5]): did not show any significant inhibition

Substance: L-α-phosphatidylinositol-3,4,5-trisphosphate [PI(3,4,5)P3]
- reduced PI-positivity (inhibition of HBD-3 mediated PI uptake by lipid) (U937 cells [5]): 100%

Substance: L-α-phosphatidylinositol-3,5-bisphosphate [PI(3,5)P2]
- reduced PI-positivity (inhibition of HBD-3 mediated PI uptake by lipid) (U937 cells [5]): did not show any significant inhibition

Substance: L-α-phosphatidylinositol-4,5-bisphosphate [PI(4,5)P2]
- reduced PI-positivity (inhibition of HBD-3 mediated PI uptake by lipid) (U937 cells [5]): ~50%

Substance: L-α-phosphatidylinositol-4-phosphate [PI(4)P]
- reduced PI-positivity (inhibition of HBD-3 mediated PI uptake by lipid) (U937 cells [5]): did not show any significant inhibition

Substance: L-α-phosphatidylserine [PS]
- reduced PI-positivity (inhibition of HBD-3 mediated PI uptake by lipid) (U937 cells [5]): ~15%

Substance: LL-37: another CAP that exhibits non-PI(4,5)P2-dependent detergent-like and/or pore-forming membrane disruption (LLGDFFRKSKEKIGKEFKRIVQRIKDFLRNLVPRTES; Antibacterial peptide LL-37; UniProt P49913 134-170, looked up) [reference compound]
- susceptibility of neomycin pre-incubated cells to permeabilisation compared to untreated control (U937 cells [6]): not

Substance: Nicotiana alata defensin 1 (RECKTESNTFPGICITKPPCRKACISEKFTDGHCSKILRRCLCTKPC; UniProt Q8GTM0 26-72, looked up) [NaD1]
- concentrations selectively killing a broad spectrum of tumour cells (tumour cells): low micromolar concentrations
